# In patent US4569791A, “Anti-diabetic compounds” (Eli Lilly and Company, priority 1984, dated 1986):
# Assays:
# isolated rat adipocytes = assay: Biological Activity in Isolated Rat Adipocytes (incorporation of 2-3H-glucose in total fat cell lipid); type: cell-based; conditions: for Relative Potency: biological activity in rat adipocytes, human proinsulin = 1; for ED50: rat adipocytes, 2-3H-glucose incorporation into lipid, 37° for 1 hr, mean ±SEM
# Procedure: C. Biological Activity in Isolated Rat Adipocytes
# Adipocytes were prepared from epididymal fat pads by a modification (Huber, supra) of the collagenase digestion procedure of Rodbell, supra. Krebs-Ringer-HEPES (KRH) buffer, pH 7.4, containing 4% bovine serum albumin and 0.55 mM glucose was used in all isolation and incubation steps.
# Biological activity was assessed according to the method of Moody, A. J., Stan, M. A., Stan, M., and Glieman, J., Horm. Metab. Res. 6, 12-16 (1974) by monitoring the incorporation of 2-^3 H-glucose in total fat cell lipid. […] Radioactivity was determined in a Searle Isocap 300 liquid scintillation counter at an efficiency of approximately 30%. Blanks were prepared in which the scintillation fluid was added to the vials prior to the addition of cells. The average counts obtained from these vials were subtracted from those observed in all other samples.
# Competitive binding curves and biological activity dose-response curves were analyzed using the PREFIT and ALLFIT programs [DeLean, A., Munson, P. J., and Rodbard, D., Am. J. Physiol. 235, E97-E102 (1978)] based on a four-parameter logistic model. These analyses indicated the concentration of insulin or proinsulin necessary to produce a half-maximal response, as well as the maximal and minimal values. All values are presented as the mean ±SEM.
# [1] = system: insulin receptor on isolated fat cells; assay: Isolated Fat Cell Radioreceptor Assay (displacement of 125I-labeled insulin); type: binding; conditions: for Relative Potency: isolated fat cell radioreceptor assay, human proinsulin = 1; for ED50: isolated fat cells, 125I-labeled insulin 1-2×10^-11 M, 15° C., two hours
# Procedure: B. Isolated Fat Cell Radioreceptor Assay
# Isolated fat cells were prepared by a modification [Huber, C. T., Solomon, S. S., and Duckworth, W. C., J. Clin. Invest. […] All incubations were in Krebs-Ringer-Hepes (KRH) buffer, pH 7.4, with 4% bovine serum albumin (BSA) in a total volume of 2 ml. […] At selected times, triplicate 300 μl aliquots were removed and added to microfuge tubes containing 100 μl dinonyl phthalate [see Gliemann, J., Osterlind, K., Vinten, J., and Gammeltoft, S., Biochem. Biophys. Acta. […] After centrifugation for one minute in a microfuge, the tubes were cut through the oil layer, and the cell pellet was counted using a gamma counter to determine binding.
# [2] = system: insulin receptor on IM-9 cells; assay: IM-9 Radioreceptor Assay (displacement of 125I-insulin); type: binding, human; conditions: for ED50: IM-9 cells, 125I-insulin 1-2×10^-11 M, 15° C., two hours; for Relative Potency: IM-9 radioreceptor assay, human proinsulin = 1
# Procedure: A. IM-9 Radioreceptor Assay
# IM-9 cells were grown in RPMI media containing 2 mM glutamine, 25 mM HEPES, and 10% fetal bovine serum. […] Incubations were carried out in 1.5 ml microfuge tubes at 15° C. for two hours. Concentrations of stock solutions containing insulin, proinsulin, or compound of this invention used in the binding studies were established by amino acid analysis and by their absorbance at 276 nm. The cells were resuspended during the assay every 30 minutes by inverting the tubes several times. At the end of the incubation, the tubes were centrifuged for one minute in a Beckman Microfuge, the supernant was aspirated, the tips of the tubes containing the cell pellet were excised, and the radioactivity was measured.
Substance,Relative Potency (isolated rat adipocytes),ED50 (isolated rat adipocytes),Relative Potency [1],ED50 [1],ED50 [2],Relative Potency [2]
(32-33 split)HPI [(32-33 split) HPI],5,2.56 ± 0.2 × 10^-9 M,5,5.29 ± 1.8 × 10^-8 M,5.92 ± 0.7 × 10^-9 M,5
Human Insulin [reference compound],–,5.32 ± 0.7 × 10^-11 M,–,–,–,–
Human Proinsulin [reference compound],1,1.24 ± 0.2 × 10^-8 M,1,2.55 ± 0.6 × 10^-7 M,2.97 ± 0.2 × 10^-8 M,1
"des(31,32)HPI [des (31,32) HPI]",5,2.68 ± 0.5 × 10^-9 M,9,2.85 ± 0.1 × 10^-8 M,5.60 ± 0.3 × 10^-9 M,5
